Results published in patent US5773447A, “Compounds for treating disorders of lipid metabolism and their preparation” (Hoechst Aktiengesellschaft, priority 1996, dated 1998).
Where a name gives a salt, the structure may show the parent alone.

Experiments:
LDL receptor mRNA [1] = assay: Stimulation of LDL receptor mRNA expression in rat livers after administration (Northern blot); type: in vivo; conditions: rat liver, 6 hours after administration, untreated control=100%
Description: (§1) Using a surrogate system, the present inventors sought to confirm the pharmacological activity of the inventive compounds. Thus, utilizing the human hepatocytoma cell line HepG2, which is recognized on all sides as a model, it was observed that the LDL receptor mRNA levels are increased by the compounds of the formula I (Table I). Even in rat livers, within a few hours the LDL receptor mRNA levels are increased by the compounds of the formula I (Table II). The observed stimulation is in the range from 170 to 350% of the controls (control=100%). Accordingly, an effective amount of an inventive compound can include an amount sufficient to increase CDL receptor levels or reduce plasma lipid levels.
The preparation of the mRNA was carried out according to the method of Chomczynski, P. and Sacchi, N., Anal. Biochem. 162, 156-159 (1987). In organs (such as, for example, liver), the deep-frozen tissue was homogenized on dry ice beforehand in a mortar, and the mRNA was further enriched by means of Oligo dT according to standard methods (cf. Sambrook, J., Fritsch, E. F. and Maniatis, T., Molecular Cloning, second Edition, Cold Spring Harbor (1989); in this collection of methods, there are also descriptions of all further relevant molecular biology standard methods used here). Five to […] of the dissolved mRNA thus obtained were denatured according to standard methods and separated on 1% horizontal agarose gels. The mRNA was transferred to Hybond N membranes (Amersham) by means of capillary blot. The specific hybridization probe used was a partial LDL receptor cDNA clone and the internal standard a plasmid which contained a β-actin gene. Both plasmids were labeled by means of a random primer kit from Amersham up to a specific activity of 5×10^9 cpm/μg. Prehybridization, hybridization and washing of the filters were carried out by standard methods. The filters were then exposed at -70° C. on Cronex 4 films (Dupont) overnight up to 14 days in the presence of an intensifying screen, and the hybridization signals were quantified using a commercial laser densitometer by means of the film-blackening intensity. The quotient of the intensity of the LDL receptor band and of the actin band was then determined as an internal standard to correct yield variations.
Liver tissue was removed and shock-frozen in liquid nitrogen. The mRNA was then isolated as described, and the relative LDL receptor mRNA levels were determined by means of the Northern blot technique. The mRNA levels of untreated control animals were set at 100%, and the stimulation of the LDL receptor mRNA in percent of the control was calculated.

LDL receptor mRNA [2] = assay: Stimulation of LDL receptor mRNA expression in HepG2 cells (Northern blot); type: cell-based; conditions: Homo sapiens, 2 × 10^-6 M, 16 h incubation, 10% fetal calf serum, LDL receptor/β-actin quotient, control=100%
Description: as §1
The preparation of the mRNA was carried out according to the method of Chomczynski, P. and Sacchi, N., Anal. Biochem. 162, 156-159 (1987). In organs (such as, for example, liver), the deep-frozen tissue was homogenized on dry ice beforehand in a mortar, and the mRNA was further enriched by means of Oligo dT according to standard methods (cf. Sambrook, J., Fritsch, E. F. and Maniatis, T., Molecular Cloning, second Edition, Cold Spring Harbor (1989); in this collection of methods, there are also descriptions of all further relevant molecular biology standard methods used here). […] The filters were then exposed at -70° C. on Cronex 4 films (Dupont) overnight up to 14 days in the presence of an intensifying screen, and the hybridization signals were quantified using a commercial laser densitometer by means of the film-blackening intensity. The quotient of the intensity of the LDL receptor band and of the actin band was then determined as an internal standard to correct yield variations.
Table I presents the stimulation of the LDL receptor mRNA expression in HepG2 cells by selected compounds of formula I in whole serum (final concentration of the compounds […]) after a 16 h incubation. […] The total mRNA was then prepared, and the relevant LDL receptor mRNA and β-actin mRNA levels were determined by means of the Northern blot technique. […]

[3] = Metabolic stability: dealkylation to compound A in in vitro incubations (HPLC); type: in vitro ADME; conditions: human, liver 9000 g fraction, 37° C., R1-dealkylated metabolite, read-out: relative content of compound A; for metabolised at 0.5 h: incubation time 0.5 h; for metabolised at 1 h: incubation time 1 h; for metabolised at 2 h: incubation time 2 h; for metabolised at 3 h: incubation time 3 h
Description: It is known that compounds of formula I where R^1 =alkyl are degraded in the metabolism to compounds of the formula I where R^1 =H (in the following called compound A). Accordingly, the instant inventors sought to investigate the metabolic fate of our inventive compounds. The following experiments, which can be carried out using intact human hepatocytes or liver extracts, are used to investigate the dealkylation tendency of the compounds of the formula I according to the invention in comparison to 4-amino-2-(4,4-dimethyl-2-oxoimidazolidin-1-yl)pyrimidine-5-N-(ethyl)-N-(3-trifluoromethyl-phenyl)carboxamide hydrochloride (compound of Example 2 from EP 0 557 879--in the following called compound B).
Frozen samples of pieces of human liver stored at -78° C. were thawed by introducing them into a 1.1% strength potassium chloride solution at a temperature of 4° C. […] After thawing, the pieces of liver were prepared by standard processes [A. Y. H. Lu, W. Levin; Biochem. Biophys. Res. Comm. 46, 1339-1344 (1972), P. G. Gervasi et al.; Xenobiotica 12/8, 517 (1982)]. The temperature was kept between 0° and 4° C. during the preparation. The 9000 g fractions of ten human livers were mixed in order to exclude interindividual enzyme differences.
The test substances were dissolved in DMSO at a concentration of about 10 mg/ml. Aliquot parts of this solution were added under sterile conditions to the hepatocyte cultures or the 9000 g fractions. The incubations were carried out at 37° C. in an atmosphere having 5% CO2 and >90% atmospheric humidity. […] NADPH and Mg^2+ were added to the 9000 g fractions as cofactors [P. G. Gervasi et al.; Xenobiotica 12/8, 517 (1982)]. All samples were frozen immediately after incubation and stored at below -20° C. until analysis.
For each species and each time, all incubations with hepatocytes and 9000 g fractions were carried out without addition of a test substance. The samples obtained were used as controls in the chromatographic analysis.
For the quantitative determination of compound A, i.e. the R^1 -dealkylated metabolite, in the in vitro incubation mixtures, […] of each mixture was in each case diluted with […] of bovine serum. These samples were analyzed by the following test for the determination of compound B free base and metabolite compound A free base in serum:
Fifty microliters of the prepared solution of an internal standard (10 μg of a compound of the formula I where R^1 =CH3, R^2, R^3 =H and R^4 =CF3 /ml of methanol), 0.1 ml of sodium acetate buffer (0.4M, pH 5.5) and 5 ml of ethyl ether were added to 0.1 ml of serum. The mixture was shaken for 20 min. After centrifuging, 4 ml of the organic phase were transferred, 3 ml of n-hexane were added and the mixture was extracted with 0.5 ml of 1% strength (v/v) aqueous trifluoroacetic acid. The upper organic layer was aspirated off and discarded. The aqueous residue was evaporated at 40° C. for 30 min. in order to remove residues of the organic solvent. 100 μl of the remaining aqueous phase were injected into the HPLC apparatus. HPLC analysis was carried out on a C18 RP column (TosoHaas Semi-Micro TSK gel ODS 80 TS) using a mobile phase of 800 g of water, 270 g of acetonitrile and 1 ml of trifluoroacetic acid. The flow rate was 0.2 ml/min. The quantitative determination of the analytes was carried out by measuring the peak heights with the aid of a UV detector at γ=240 nm. The calibration range was between 50 and 0.05 μg/ml corresponding to 200 to 0.2 μg/ml in the undiluted in vitro sample. The detection limit was 0.05 μg/ml corresponding to 0.2 μg/ml in the undiluted in vitro sample.

CC1(C)CN(c2ncc(C(=O)N(CC(F)(F)C(F)(F)C(F)(F)F)c3ccc(F)c(C(F)(F)F)c3)c(N)n2)C(=O)N1 [Example 17, 4-Amino-2-(4,4-dimethylimidazolidin-2-on-1-yl)-5-pyrimidine-5-[N-(3-trifluoromethyl-4-fluorophenyl)-N-(2,2,3,3,4,4,4-heptafluorobutyl)]-carboxamide]
response vs control in vivo at 30 mg/kg (LDL receptor mRNA [1]): 195%

CC1(C)CN(c2ncc(C(=O)N(CC(F)(F)C(F)(F)F)c3ccc(Cl)c(C(F)(F)F)c3)c(N)n2)C(=O)N1 [Example 9, 4-Amino-2-(4,4-dimethylimidazolidin-2-on-1-yl)pyrimidine-5-N-[(4-chloro-3-trifluoromethyl)phenyl]-N-(2,2,3,3,3-pentafluoropropyl)carboxamide]
response vs control in vivo at 30 mg/kg (LDL receptor mRNA [1]): 193%

CC1(C)CN(c2ncc(C(=O)N(CC(F)(F)C(F)(F)C(F)(F)F)c3cc(C(F)(F)F)ccc3Cl)c(N)n2)C(=O)N1 [Example 14, 4-Amino-2-(4,4-dimethylimidazolidin-2-on-1-yl)pyrimidine-5-[N-(3-trifluoromethyl-6-chlorophenyl)-N-(2,2,3,3,4,4,4-heptafluorobutyl)]-carboxamide]
response vs control in vivo at 30 mg/kg (LDL receptor mRNA [1]): 194%

CC1(C)CN(c2ncc(C(=O)N(CC(F)(F)C(F)(F)C(F)(F)F)c3ccc(Cl)c(C(F)(F)F)c3)c(N)n2)C(=O)N1 [Example 10, 4-Amino-2-(4,4-dimethylimidazolidin-2-on-1-yl)pyrimidine-5-N-[(4-chloro-3-trifluoromethyl)phenyl]-N-(2,2,3,3,4,4,4-heptafluorobutyl)carboxamide]
activity at 2 µM (LDL receptor mRNA [2]): 206%

CC1(C)CN(c2ncc(C(=O)N(CC(F)(F)C(F)(F)F)c3cccc(C(F)(F)F)c3)c(N)n2)C(=O)N1 [Example 3, 4-Amino-2-(4,4-dimethylimidazolidin-2-on-1-yl-pyrimidine-5-N-(2,2,3,3,3-pentafluoropropyl)-N-[(3trifluoromethyl)phenyl]carboxamide hydrochloride]
response vs control in vivo at 30 mg/kg (LDL receptor mRNA [1]): 200%

CC1(C)CN(c2ncc(C(=O)N(CC(F)(F)F)c3ccc(F)c(C(F)(F)F)c3)c(N)n2)C(=O)N1 [Example 6, 4-Amino-2-(4,4-dimethylimidazolidin-2-on-1-yl)pyrimidine-5-N-(2,2,2-trifluoroethyl)-N-[(4-fluoro-3-trifluoromethyl)phenyl]carboxamide]
response vs control in vivo at 30 mg/kg (LDL receptor mRNA [1]): 216%

CC1(C)CN(c2ncc(C(=O)N(CCF)c3cccc(C(F)(F)F)c3)c(N)n2)C(=O)N1 [Example 12, 4-Amino-2-(4,4-dimethylimidazolidin-2-on-1-yl)pyrimidine-5-[N-(3-trifluoromethylphenyl)-N-(2-fluoroethyl)]carboxamide]
metabolised at 0.5 h [3]: 2% | metabolised at 1 h [3]: 4% | metabolised at 2 h [3]: 6% | metabolised at 3 h [3]: 9%

CC1(C)CN(c2ncc(C(=O)N(CC(F)(F)F)c3ccc(Cl)c(C(F)(F)F)c3)c(N)n2)C(=O)N1 [Example 8, 4-Amino-2-(4,4-dimethylimidazolidin-2-on-1-yl)pyrimidine-5-N-[(4-chloro-3-trifluoromethyl)phenyl]-N-(2,2,2-trifluoroethyl)carboxamide hydrochloride]
response vs control in vivo at 30 mg/kg (LDL receptor mRNA [1]): 182%

CCN(C(=O)c1cnc(N2CC(C)(C)NC2=O)nc1N)c1cccc(C(F)(F)F)c1 [Compound B, 4-amino-2-(4,4-dimethyl-2-oxoimidazolidin-1-yl)pyrimidine-5-N-(ethyl)-N-(3-trifluoromethyl-phenyl)carboxamide hydrochloride, reference compound]
metabolised at 0.5 h [3]: 4% | metabolised at 1 h [3]: 8% | metabolised at 2 h [3]: 10% | metabolised at 3 h [3]: 12%

CC1(C)CN(c2ncc(C(=O)N(CC(F)(F)C(F)(F)C(F)(F)F)c3cccc(C(F)(F)F)c3)c(N)n2)C(=O)N1 [Example 2, 4-Amino-2-(4,4-dimethylimidazolidin-2-on-1-yl)pyrimidine-5-N-(2,2,3,3,4,4,4-heptafluorobutyl)-N-[(3-trifluoromethyl)phenyl]carboxamide hydrochloride]
response vs control in vivo at 30 mg/kg (LDL receptor mRNA [1]): 245% | metabolised at 0.5 h [3]: < 2% | metabolised at 1 h [3]: < 2% | metabolised at 2 h [3]: < 2% | metabolised at 3 h [3]: < 2%

CC1(C)CN(c2ncc(C(=O)N(CC(F)(F)F)c3cccc(C(F)(F)F)c3)c(N)n2)C(=O)N1 [Example 1, 4-Amino-2-(4,4-dimethylimidazolidin-2-on-1-yl) pyrimidine-5-N-(2,2,2-trifluoroethyl)-N-[(3-trifluoromethyl)phenyl]carboxamide hydrochloride]
activity at 2 µM (LDL receptor mRNA [2]): 220% | response vs control in vivo at 30 mg/kg (LDL receptor mRNA [1]): 220% | metabolised at 0.5 h [3]: < 2% | metabolised at 1 h [3]: < 2% | metabolised at 2 h [3]: 3% | metabolised at 3 h [3]: 4%

CC1(C)CN(c2ncc(C(=O)N(CC(F)(F)C(F)(F)F)c3cc(C(F)(F)F)ccc3Cl)c(N)n2)C(=O)N1 [Example 11, 4-Amino-2-(4,4-dimethylimidazolidin-2-on-1-yl)pyrimidine-5-N-[(6-chloro-3-trifluoromethyl)phenyl]-N-(2,2,3,3,3-pentafluoropropyl)carboxamide hydrochloride]
activity at 2 µM (LDL receptor mRNA [2]): 290%
